According to PubChem BioAssay (NCI):
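Briefly, cells in 96-well plates were exposed to five compound concentrations for 48 h, and endpoints were estimated by linear interpolation. TGI denotes the concentration required for complete inhibition of growth.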

Experiments:
Assay in all cases: DTP human tumour cell line panel, 48 h
MALME-3M melanoma = test system: MALME-3M melanoma
MOLT-4 leukemia = test system: MOLT-4 leukemia
SK-OV-3 ovarian = test system: SK-OV-3 ovarian
LXFL 529 NSCLC = test system: LXFL 529 NSCLC
786-0 renal = test system: 786-0 renal
U251 CNS = test system: U251 CNS
COLO 205 colon = test system: COLO 205 colon
TK-10 renal = test system: TK-10 renal
M14 melanoma = test system: M14 melanoma
LOX IMVI melanoma = test system: LOX IMVI melanoma
UACC-62 melanoma = test system: UACC-62 melanoma
NCI-H460 lung = test system: NCI-H460 lung
KM20L2 colon = test system: KM20L2 colon
RXF 393 renal = test system: RXF 393 renal
UO-31 renal = test system: UO-31 renal
HCC-2998 colon = test system: HCC-2998 colon
A498 renal = test system: A498 renal
SN12C renal = test system: SN12C renal
HCT-15 colon = test system: HCT-15 colon
RPMI-8226 leukemia = test system: RPMI-8226 leukemia
SNB-19 CNS = test system: SNB-19 CNS
SK-MEL-5 melanoma = test system: SK-MEL-5 melanoma
NCI-H23 lung = test system: NCI-H23 lung
M19-MEL melanoma = test system: M19-MEL melanoma
IGROV1 ovarian = test system: IGROV1 ovarian
CCRF-CEM leukemia = test system: CCRF-CEM leukemia
HOP-62 NSCLC = test system: HOP-62 NSCLC
XF 498 CNS = test system: XF 498 CNS
HCT-116 colon = test system: HCT-116 colon
SK-MEL-2 melanoma = test system: SK-MEL-2 melanoma
A549 NSCLC = test system: A549 NSCLC
CAKI-1 renal = test system: CAKI-1 renal
EKVX NSCLC = test system: EKVX NSCLC
OVCAR-5 ovarian = test system: OVCAR-5 ovarian
SNB-75 CNS = test system: SNB-75 CNS
DLD-1 colon = test system: DLD-1 colon
HL-60(TB) leukemia = test system: HL-60(TB) leukemia
SF-539 CNS = test system: SF-539 CNS
OVCAR-8 ovarian = test system: OVCAR-8 ovarian
SF-268 CNS = test system: SF-268 CNS
NCI-H522 lung = test system: NCI-H522 lung
NCI-H226 lung = test system: NCI-H226 lung
HOP-92 NSCLC = test system: HOP-92 NSCLC
ACHN renal = test system: ACHN renal
SW-620 colon = test system: SW-620 colon
SNB-78 CNS = test system: SNB-78 CNS
OVCAR-4 ovarian = test system: OVCAR-4 ovarian
DMS 114 small cell lung = test system: DMS 114 small cell lung
K-562 leukemia = test system: K-562 leukemia
SK-MEL-28 melanoma = test system: SK-MEL-28 melanoma
HT29 colon = test system: HT29 colon
UACC-257 melanoma = test system: UACC-257 melanoma
DMS 273 small cell lung = test system: DMS 273 small cell lung
SR leukemia = test system: SR leukemia
OVCAR-3 ovarian = test system: OVCAR-3 ovarian
KM12 colon = test system: KM12 colon
SF-295 CNS = test system: SF-295 CNS
RXF-631 renal = test system: RXF-631 renal

`O=C(Nc1ccc(Cl)cc1Cl)/C(Cl)=C1/Sc2ccccc2NC1=O` showed a TGI (MALME-3M melanoma) of 77.9 µM, a TGI (MOLT-4 leukemia) of 87 µM and a TGI (SK-OV-3 ovarian) of 80.4 µM. For the same compound, the TGI (LXFL 529 NSCLC) was > 100 µM, the TGI (786-0 renal) was > 100 µM and the TGI (U251 CNS) was > 100 µM. For the same compound, the TGI (COLO 205 colon) was > 100 µM, the TGI (TK-10 renal) was > 100 µM and the TGI (M14 melanoma) was > 100 µM. For the same compound, the TGI (LOX IMVI melanoma) was > 100 µM, the TGI (UACC-62 melanoma) was > 100 µM and the TGI (NCI-H460 lung) was > 100 µM. The TGI (KM20L2 colon) was > 100 µM, the TGI (RXF 393 renal) was 75.8 µM and the TGI (UO-31 renal) was 77.2 µM. For the same compound, the TGI (HCC-2998 colon) was > 100 µM, the TGI (A498 renal) was > 100 µM and the TGI (SN12C renal) was > 100 µM. For the same compound, the TGI (HCT-15 colon) was > 100 µM, the TGI (RPMI-8226 leukemia) was 65.9 µM and the TGI (SNB-19 CNS) was > 100 µM. The TGI (SK-MEL-5 melanoma) was 45.8 µM, the TGI (NCI-H23 lung) was 55 µM and the TGI (M19-MEL melanoma) was > 100 µM. The TGI (IGROV1 ovarian) was > 100 µM, the TGI (CCRF-CEM leukemia) was 83.4 µM and the TGI (HOP-62 NSCLC) was > 100 µM. It also gave a TGI (XF 498 CNS) of 40.5 µM, a TGI (HCT-116 colon) of 66.4 µM and a TGI (SK-MEL-2 melanoma) of 48.3 µM. For the same compound, the TGI (A549 NSCLC) was > 100 µM, the TGI (CAKI-1 renal) was > 100 µM and the TGI (EKVX NSCLC) was > 100 µM. The TGI (OVCAR-5 ovarian) was > 100 µM, the TGI (SNB-75 CNS) was 85.9 µM and the TGI (DLD-1 colon) was > 100 µM. For the same compound, the TGI (HL-60(TB) leukemia) was 53.8 µM, the TGI (SF-539 CNS) was > 100 µM and the TGI (OVCAR-8 ovarian) was > 100 µM. The TGI (SF-268 CNS) was > 100 µM, the TGI (NCI-H522 lung) was 49 µM and the TGI (NCI-H226 lung) was 79.2 µM. For the same compound, the TGI (HOP-92 NSCLC) was 51.6 µM, the TGI (ACHN renal) was 78.9 µM and the TGI (SW-620 colon) was > 100 µM. The TGI (SNB-78 CNS) was > 100 µM, the TGI (OVCAR-4 ovarian) was > 100 µM and the TGI (DMS 114 small cell lung) was 80 µM. For the same compound, the TGI (K-562 leukemia) was > 100 µM and the TGI (SK-MEL-28 melanoma) was 75.7 µM.

For `C=CCn1c(=S)sc2c(=O)[nH]cnc21`, the TGI (MALME-3M melanoma) was > 100 µM, the TGI (HT29 colon) was > 100 µM and the TGI (UACC-257 melanoma) was > 100 µM. The TGI (DMS 273 small cell lung) was > 100 µM, the TGI (MOLT-4 leukemia) was > 100 µM and the TGI (SK-OV-3 ovarian) was > 100 µM. The TGI (LXFL 529 NSCLC) was > 100 µM, the TGI (SR leukemia) was > 100 µM and the TGI (786-0 renal) was > 100 µM. For the same compound, the TGI (U251 CNS) was > 100 µM, the TGI (COLO 205 colon) was > 100 µM and the TGI (TK-10 renal) was > 100 µM. The TGI (M14 melanoma) was > 100 µM, the TGI (LOX IMVI melanoma) was > 100 µM and the TGI (UACC-62 melanoma) was > 100 µM. The TGI (NCI-H460 lung) was > 100 µM, the TGI (KM20L2 colon) was > 100 µM and the TGI (UO-31 renal) was > 100 µM. For the same compound, the TGI (HCC-2998 colon) was > 100 µM, the TGI (A498 renal) was > 100 µM and the TGI (SN12C renal) was > 100 µM. The TGI (HCT-15 colon) was > 100 µM, the TGI (SNB-19 CNS) was > 100 µM and the TGI (SK-MEL-5 melanoma) was > 100 µM. The TGI (NCI-H23 lung) was > 100 µM, the TGI (M19-MEL melanoma) was > 100 µM and the TGI (IGROV1 ovarian) was > 100 µM. The TGI (CCRF-CEM leukemia) was > 100 µM, the TGI (HOP-62 NSCLC) was > 100 µM and the TGI (XF 498 CNS) was > 100 µM. The TGI (HCT-116 colon) was > 100 µM, the TGI (SK-MEL-2 melanoma) was > 100 µM and the TGI (A549 NSCLC) was > 100 µM. For the same compound, the TGI (CAKI-1 renal) was > 100 µM, the TGI (EKVX NSCLC) was > 100 µM and the TGI (OVCAR-5 ovarian) was > 100 µM. For the same compound, the TGI (SNB-75 CNS) was > 100 µM, the TGI (DLD-1 colon) was > 100 µM and the TGI (OVCAR-3 ovarian) was > 100 µM. For the same compound, the TGI (KM12 colon) was > 100 µM, the TGI (HL-60(TB) leukemia) was > 100 µM and the TGI (SF-539 CNS) was > 100 µM. The TGI (OVCAR-8 ovarian) was > 100 µM, the TGI (SF-295 CNS) was > 100 µM and the TGI (SF-268 CNS) was > 100 µM. For the same compound, the TGI (NCI-H522 lung) was > 100 µM, the TGI (HOP-92 NSCLC) was > 100 µM and the TGI (ACHN renal) was > 100 µM. The TGI (SW-620 colon) was > 100 µM, the TGI (SNB-78 CNS) was > 100 µM and the TGI (OVCAR-4 ovarian) was > 100 µM. For the same compound, the TGI (DMS 114 small cell lung) was > 100 µM and the TGI (K-562 leukemia) was > 100 µM.

`COC(=O)CCC(=O)C(C#N)c1ccc(Cl)cc1Cl` (stereo not given) was tested, and the TGI (MALME-3M melanoma) was > 100 µM, the TGI (HT29 colon) was > 100 µM and the TGI (UACC-257 melanoma) was > 100 µM. For the same compound, the TGI (DMS 273 small cell lung) was > 100 µM, the TGI (MOLT-4 leukemia) was > 100 µM and the TGI (SK-OV-3 ovarian) was > 100 µM. For the same compound, the TGI (LXFL 529 NSCLC) was > 100 µM, the TGI (SR leukemia) was > 100 µM and the TGI (786-0 renal) was > 100 µM. For the same compound, the TGI (U251 CNS) was > 100 µM, the TGI (TK-10 renal) was > 100 µM and the TGI (M14 melanoma) was > 100 µM. For the same compound, the TGI (LOX IMVI melanoma) was > 100 µM, the TGI (UACC-62 melanoma) was > 100 µM and the TGI (KM20L2 colon) was > 100 µM. The TGI (UO-31 renal) was > 100 µM, the TGI (SN12C renal) was > 100 µM and the TGI (HCT-15 colon) was > 100 µM. For the same compound, the TGI (RPMI-8226 leukemia) was > 100 µM, the TGI (SNB-19 CNS) was > 100 µM and the TGI (NCI-H23 lung) was > 100 µM. For the same compound, the TGI (M19-MEL melanoma) was > 100 µM, the TGI (IGROV1 ovarian) was > 100 µM and the TGI (CCRF-CEM leukemia) was > 100 µM. For the same compound, the TGI (XF 498 CNS) was > 100 µM, the TGI (HCT-116 colon) was > 100 µM and the TGI (SK-MEL-2 melanoma) was > 100 µM. For the same compound, the TGI (A549 NSCLC) was > 100 µM, the TGI (CAKI-1 renal) was > 100 µM and the TGI (EKVX NSCLC) was > 100 µM. The TGI (SNB-75 CNS) was > 100 µM, the TGI (DLD-1 colon) was > 100 µM and the TGI (OVCAR-3 ovarian) was > 100 µM. For the same compound, the TGI (KM12 colon) was > 100 µM, the TGI (HL-60(TB) leukemia) was > 100 µM and the TGI (SF-539 CNS) was > 100 µM. The TGI (RXF-631 renal) was > 100 µM, the TGI (SF-295 CNS) was > 100 µM and the TGI (SF-268 CNS) was > 100 µM. The TGI (NCI-H522 lung) was > 100 µM, the TGI (NCI-H226 lung) was > 100 µM and the TGI (HOP-92 NSCLC) was > 100 µM. The TGI (ACHN renal) was > 100 µM, the TGI (SW-620 colon) was > 100 µM and the TGI (SNB-78 CNS) was > 100 µM. For the same compound, the TGI (K-562 leukemia) was > 100 µM and the TGI (SK-MEL-28 melanoma) was > 100 µM.
